For this assay, the target named is T1, human cGAS (residues 161-522) (Homo sapiens, UniProt Q8N884).
T1 construct: Recombinantly expressed purified human cGAS (residues 161-522) was used at 25 nM; made in house
In words: Malachite Green assay to measure cGAS activity. Format: biochemical. The note with it: coupled enzymatic assay, phosphate detection by Malachite Green; 25 nM cGAS, 80 μM ATP, 80 μM GTP, 100 nM ISD, 4 hour at RT. The procedure: Compounds were tested for cGAS inhibition in a coupled enzymatic assay based on Phosphate detection by Malachite Green. Final assay conditions were 20 mM TRIS pH 7.5 (Applichem), 5 mM MgCl2 (Sigma) and 0.01% BSA (Sigma) supplemented with 80 μM ATP (Sigma), 80 μM GTP (Sigma) and 100 nM Interferon Stimulating DNA (ISD) (Microsynth). Recombinantly expressed purified human cGAS (residues 161-522) was used at 25 nM.
All compounds were prepared as 10 mM stock solutions in DMSO and a 16 pt dilution series in DMSO with a dilution factor of 2.5 was prepared. 1 μL of DMSO dilution series was transferred to 32.3 μL reaction buffer, mixed by pipetting up/down, spun for 1 minute at 3000 rpm and was visually inspected for precipitation. 5 μL of 3-fold enzyme stock solution were transferred to an empty 384-well Black/Clear Flat Bottom Polystyrene NBS (Corning) rows 3-24. Rows 1-2 were filled with assay buffer. Plates were spun 10 seconds at 1000 rpm (164×g). 5 μL of compound intermediate dilution was added and mixed by pipetting up/down to rows 3-24. Rows 1-2 were filled with 3.1% DMSO assay buffer. Plates were spun 10 seconds at 1000 rpm (164×g). 5 μL 3-fold Nucleotide/DNA mix was added to all wells to start the reaction. Plates were spun 10 seconds at 1000 rpm (164×g) and incubated for 4 hour at room temperature (RT) in the dark. 5 μL 4 U/mL PPase (Sigma) were added to all wells. Plates spun 10 seconds at 1000 rpm (164×g). 10 μL BioMol green Solution (Enzo Life Sciences) was added to all wells. Plates spun 10 seconds at 1000 rpm (164×g) and incubated 30 minutes at RT in the dark. Absorbance data was collected 620 nm on an EnVision Multilable Reader (Perkin Elmer) and the following measurement settings were used: excitation filter photometric was 620 nm; excitation from the top; measurement height was 1 mm; number of flashes was 30; number of flashes integrated was 1.
All plates are checked for abnormalities and outliers in the Blank Control (no protein, row 1) and the Neutral Control (no compound, row 2) are excluded using the 3*SD rule. Data was normalized to 0 and 100% by Blank and Neutral Control and each curve was fitted and judged using the 4 parameter logistic equation to determine the IC50 for cGAS inhibition.
Table 1 provides IC50 values (μM) for cGAS inhibition obtained for particular examples of the present invention as measured by the above-described assay.

SMILES strings stand for the structures. pIC50: −log10 of the molar value.

T1 sequence (Q8N884 161-522): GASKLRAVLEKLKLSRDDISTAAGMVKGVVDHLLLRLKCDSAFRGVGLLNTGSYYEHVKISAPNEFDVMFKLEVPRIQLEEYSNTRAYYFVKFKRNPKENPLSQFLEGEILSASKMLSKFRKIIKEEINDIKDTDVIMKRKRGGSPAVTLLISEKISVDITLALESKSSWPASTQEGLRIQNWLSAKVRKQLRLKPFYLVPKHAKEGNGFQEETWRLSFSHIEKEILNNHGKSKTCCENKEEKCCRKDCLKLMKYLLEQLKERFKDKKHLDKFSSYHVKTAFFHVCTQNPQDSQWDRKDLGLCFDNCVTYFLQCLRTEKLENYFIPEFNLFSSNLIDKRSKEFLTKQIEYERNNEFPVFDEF

By pIC50 is commonly meant −log10 of the IC50, conventionally taken in molar units. Low values mean a large IC50, high ones a small IC50. Compound `Cc1ccc(-c2ccc(OCCn3ccnc3)c(C(=O)O)c2)c(Cl)c1` [Example 6, 5-(2-Chloro-4-methylphenyl)-2-(2-imidazol-1-ylethoxy)benzoic Acid] showed a pIC50 of 5.55.
`Cc1ccc(-c2ccc(NC(=O)Cn3cncn3)c(C(=O)O)c2)c(Cl)c1` [Example 1, 4-(2-(1H-1,2,4-Triazol-1-yl)acetamido)-2′-chloro-4′-methyl-[1,1′-biphenyl]-3-carboxylic Acid] showed a pIC50 of 5.74.
With `Cc1ccc(-c2ccc(NC(=O)Cc3cnc(C)[nH]c3=O)c(C(=O)O)c2)c(Cl)c1` [Example 2, 2′-Chloro-4′-methyl-4-(2-(2-methyl-6-oxo-1,6-dihydropyrimidin-5-yl)acetamido)-[1,1′-biphenyl]-3-carboxylic Acid] the figure was 5.68; with `Cc1ccc(-c2ccc(OCCN3CCS(=O)(=O)CC3)c(C(=O)O)c2)c(Cl)c1` [Example 7, 5-(2-Chloro-4-methylphenyl)-2-[2-(1,1-dioxo-1,4-thiazinan-4-yl)ethoxy]benzoic Acid], 5.57.
`Cc1ccc(-c2ccc(OCc3ccccc3)c(C(=O)O)c2)c(Cl)c1` [Example 8, 5-(2-Chloro-4-methylphenyl)-2-phenylmethoxybenzoic Acid] had a pIC50 of 5.38.
With `Cc1ccc(-c2ccc(NC(=O)CN3CCOCC3)c(C(=O)O)c2)c(Cl)c1` [Example 4, 5-(2-Chloro-4-methylphenyl)-2-[(2-morpholin-4-ylacetyl)amino]benzoic Acid] the figure was 6.49; with `Cc1ccc(-c2ccc(NC(=O)Cc3ccccc3)c(C(=O)O)c2)c(Cl)c1` [Example 5, 5-(2-Chloro-4-methylphenyl)-2-[(2-phenylacetyl)amino]benzoic Acid], 5.51; with `Cc1ccc(-c2ccc(NC(=O)CCN3CCOCC3)c(C(=O)O)c2)c(Cl)c1` [Example 3, 2′-Chloro-4′-methyl-4-(3-morpholinopropanamido)-[1,1′-biphenyl]-3-carboxylic Acid], 5.32.

Source of the values: US20230192631A1, “Biphenyl Derivatives” (Hoffmann-La Roche Inc., priority 2020, published 2023).
